# Reference: publication PMC11125453, “A Novel 2-Methoxyestradiol Derivative: Disrupting Mitosis Inhibiting Cell Motility and Inducing Apoptosis in HeLa Cells In Vitro” (Pharmaceutics, 2024)
# Tests used:
# [1] = biological target: T1, ERα (Homo sapiens, UniProt P03372); assay: Estrogenic activity luciferase reporter assay in T47D-ERE-Luc^Neo; type: cell-based; settings: 24 h incubation, read-out: EC50, oestrogenic activity (transcriptional activity of oestrogen-responsive luciferase reporter)
# T1 construct: T47D-ERE-Luc^Neo, an ERα-positive cell line, stably transfected with a luciferase reporter cassette; endogenous in cells; host or cells: T47D-ERE-Luc^Neo
# T1 sequence (P03372 1-595): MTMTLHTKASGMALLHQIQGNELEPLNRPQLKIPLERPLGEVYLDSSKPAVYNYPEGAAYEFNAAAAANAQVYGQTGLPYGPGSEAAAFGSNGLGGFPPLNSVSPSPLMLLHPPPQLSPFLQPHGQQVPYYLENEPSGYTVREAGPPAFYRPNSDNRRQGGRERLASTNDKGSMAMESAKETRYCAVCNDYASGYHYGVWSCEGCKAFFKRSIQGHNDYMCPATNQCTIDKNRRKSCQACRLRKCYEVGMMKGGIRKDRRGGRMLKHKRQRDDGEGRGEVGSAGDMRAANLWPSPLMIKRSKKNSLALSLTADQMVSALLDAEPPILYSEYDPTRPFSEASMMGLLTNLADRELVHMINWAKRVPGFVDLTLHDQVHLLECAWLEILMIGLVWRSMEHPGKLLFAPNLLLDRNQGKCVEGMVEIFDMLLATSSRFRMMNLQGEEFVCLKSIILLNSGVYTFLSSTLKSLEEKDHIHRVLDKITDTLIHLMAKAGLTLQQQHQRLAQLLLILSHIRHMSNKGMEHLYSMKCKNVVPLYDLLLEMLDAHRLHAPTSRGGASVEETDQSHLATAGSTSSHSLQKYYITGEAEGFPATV
# Method: The in vitro oestrogenic activity of our test compound was determined by utilizing the T47D-ERE-Luc^Neo, an ERα-positive cell line, stably transfected with a luciferase reporter cassette. On the first day of the experiment, cells were seeded onto 96-well microplates in a density of 50,000 cells/well. After 72 h of incubation, the medium was changed to phenol red-free RPMI, containing 10% charcoal-stripped FBS. This step was repeated for another four consecutive days to deplete the intracellular oestrogen content. […]. After 24 h of incubation, the supernatant was removed from the wells and the One-Glo™ firefly luciferase reagent was added according to the manufacturer’s instructions (Promega Corp., Madison, WI, USA). Following a 5 min incubation period, the luciferase enzyme activity was measured using a luminometer (FLUOstar OPTIMA, BMG Labtech GmbH, Ortenberg, Germany). Each concentration was assayed in triplicates, repeated twice. Relative luminescence units (RLU) were normalised to percentage values, and sigmoidal concentration–response curves were fitted to the data points using GraphPad Prism 9.5.1 (GraphPad Software, San Diego, CA, USA).
# [2] = system: NIH/3T3 cells; assay: Growth inhibition on non-cancerous mouse fibroblast cells, previous study; type: cell-based; settings: ratio of IC50 values of NIH/3T3 and HeLa
# [3] = system: T47D cells; assay: MTT assay, growth inhibition of T47D, 72 h; type: cell-based; settings: Homo sapiens, 72 h incubation
# Method: The extent of the inhibition of cell proliferation by the test compound was determined using the MTT (3-(4,5-dimethylthiazol-2-yl)-2,5-diphenyltetrazolium bromide) assay. Exponentially growing HeLa cells were seeded into 96-well plates at a density of 1.0 × 10^4 cells per well in 100 µL of media and incubated for 24 h to facilitate cell attachment. Subsequently, the cells were treated with test compounds formulated in 100 µL of media at six different concentrations of compounds ranging, from 0.1 to 30 µmol. The control group received only media treatment. After 24 h of incubation, 22 µL of MTT solution (5 mg/mL in PBS; Duchefa Biochemie BV, Haarlem, The Netherlands) was added and incubated for 4 h at 37 °C in a humidified 5% CO2 environment. […] Absorbance measurements were taken at 545 nm using a microplate UV-VIS reader (SPECTRO star Nano, BMG Labtech GmbH, Offenburg, Germany), followed by the calculation of the percentage cell viability using the GraphPad Prism 5.01 (GraphPad Software, San Diego, CA, USA). […]
# The MTT assay was conducted as described in Section 2.5, with the incubation time extended to 72 h. IC50 values were determined by fitting sigmoidal concentration–response curves using GraphPad Prism 9.5.1 (GraphPad Software, San Diego, CA, USA). […]
# [4] = system: MCF7 cells; assay: MTT assay, growth inhibition of MCF7, 72 h; type: cell-based; settings: Homo sapiens, 72 h incubation
# [5] = system: HeLa cells; assay: Wound-healing assay; type: cell-based, human; settings: 5.0 µM
# Method: Due to the significant contribution of cell motility to tumour metastasis, we performed a wound-healing assay, utilizing a 2D model, to explore the antimigratory potential of compound 4a on HeLa cells. Special silicon inserts (Ibidi GmbH, Gräfelfing, Germany) were utilised, with 50,000 cells per well implanted on 12-well plates in a standard EMEM medium supplemented with 10% FBS. Following overnight incubation, the inserts were carefully removed, and the confluent monolayers were washed with PBS. Cells were then treated with sub-antiproliferative concentrations (1.0, 2.5 and 5.0 µM) of compound 4a in the EMEM medium containing 2% FBS. Images were then captured at 0, 24, and 48 h post-treatment using a Nikon Eclipse TS100 fluorescence microscope (Nikon Instruments Europe, Amstelveen, The Netherlands). Untreated cells served as the control, and the rate of wound closure (the decrease in size of the gaps devoid of cells) was measured using ImageJ software v1.54 (National Institutes of Health, Bethesda, MD, USA).
# [6] = system: HeLa cells; assay: Boyden chamber invasion assay; type: cell-based, human; settings: 5.0 µM, 24 h
# Method: Compound 4a’s capacity to inhibit tumour invasion was assessed using the Boyden chamber assay, a three-dimensional model, on a profoundly invasive HPV-18 positive cell line. The polyethylene terephthalate (PET) membrane (8 μm pore size) and the thin layer of the matrigel basement matrix in special Boyden chamber inserts (BioCoat™ Matrigel® Invasion Chambers, Corning Inc., Corning, NY, USA) were prehydrated (2 h, serum-free EMEM) and placed onto a 24-well plate. The cell suspension (50,000 cells/insert in 500 μL) prepared in the serum-free EMEM with sub-antiproliferative concentrations (1.0, 2.5, and 5.0 μM) of 4a was nested in the upper compartments. Untreated cells were used as controls, with the EMEM medium supplemented with 10% FBS, and served as a chemoattractant in the lower chambers. After 24 h of incubation, supernatants and non-invading cells were removed cautiously with a cotton swab. […] Subsequently, 4 images per chamber were taken with a Nikon Eclipse TS100 fluorescence microscope (Nikon Instruments Europe, Amstelveen, The Netherlands), and the number of invading cells were enumerated using ImageJ software (National Institutes of Health, Bethesda, MD, USA). The invasion rate was determined by comparing the number of invaded cells in the treated samples with the number of invaded cells in the untreated control samples.
# [7] = system: tubulin; assay: Cell-free tubulin polymerisation assay; type: biochemical
# Method: To assess the impact of test compound 4a on the microtubular system, a cell-free tubulin polymerisation assay was conducted using a commercially available kit (Cytoskeleton Inc., Denver, CO, USA), largely in accordance with manufacturer’s instructions, though with some modifications. The assay was performed in a pre-heated 96-well plate, with each condition tested in two parallel wells. Two wells were assigned as the experimental control and received 10 µL of general tubulin buffer (GTB), while the next two wells were assigned as the positive control and received a similar volume of 10 µM paclitaxel. Various concentrations of the test compound (50, 150, 300, and 600 µM) were added in similar volumes, and the polymerisation reaction was initiated by adding 100 µL of tubulin to each well. Absorbance readings were measured every minute for 60 min at 340 nm, following a kinetic measurement protocol. A similar experiment was repeated with the absence of glycerol in the reaction mixture and in exclusion of 50, 150 µM of our test compound. […] The maximum rate of tubulin polymerisation (Vmax) was determined as the highest difference between a set of three absorbance values at any two consecutive intervals.
# [8] = system: HeLa cells; assay: Cell cycle analysis using flow cytometry; type: cell-based, human; settings: 18 h incubation; 1.25, 2.5, 5.0 and 10 µM
# Method: Cell cycle analysis was performed to elucidate a possible mechanism of action of the compound 4a. Cells were seeded in a 12-well plate at a density of 120,000 cells per well and incubated overnight. […] The supernatant from each treatment was collected separately, and the cells were washed with PBS and detached using trypsin. The resulting supernatant containing the cells was centrifuged at 1300 rpm for 5 min. The cells were then washed with PBS and fixed with 70% ice-cold ethanol at −20 °C for 20 min. To stain the DNA content, the cells were treated with 300 µL of staining solution, which consisted of 10 µg/mL PI, 0.1% sodium citrate, 0.1% triton-X, and 10 µg/mL RNase-A, all dissolved in injectable water. The staining process was carried out in the dark for 30 min. The cells were subjected to analysis using a flow cytometer (CytoFLEX-V0-B4-RO, Beckman Coulter, Brea, CA, USA) with a minimum of 10,000 events per sample being evaluated during each analysis. The data obtained were processed using ModFit LT 3.3.11 software (Verity Software House, Topsham, ME, USA). Untreated cells were utilised as the control group. Apoptotic cells were identified as the hypodiploid (subG1) cell population. The cell cycle analysis experiments were conducted twice, with three parallel samples for each condition.
# [9] = system: HeLa cells; assay: MTT assay for cell viability, 24 h; type: cell-based, human; settings: concentrations corresponding the IC50 of 4a
# Method: The extent of the inhibition of cell proliferation by the test compound was determined using the MTT (3-(4,5-dimethylthiazol-2-yl)-2,5-diphenyltetrazolium bromide) assay. Exponentially growing HeLa cells were seeded into 96-well plates at a density of 1.0 × 10^4 cells per well in 100 µL of media and incubated for 24 h to facilitate cell attachment. Subsequently, the cells were treated with test compounds formulated in 100 µL of media at six different concentrations of compounds ranging, from 0.1 to 30 µmol. The control group received only media treatment. After 24 h of incubation, 22 µL of MTT solution (5 mg/mL in PBS; Duchefa Biochemie BV, Haarlem, The Netherlands) was added and incubated for 4 h at 37 °C in a humidified 5% CO2 environment. The medium was subsequently aspirated, and 100 µL of DMSO was added to dissolve the formazan crystals produced by the intact cell’s mitochondrial enzymes. The mixture was then mechanically shaken for 30 min. Absorbance measurements were taken at 545 nm using a microplate UV-VIS reader (SPECTRO star Nano, BMG Labtech GmbH, Offenburg, Germany), followed by the calculation of the percentage cell viability using the GraphPad Prism 5.01 (GraphPad Software, San Diego, CA, USA). All in vitro experiments were performed twice with five replicates. Stock solutions of the tested substances (10 mM) were prepared in DMSO.
# [10] = system: HeLa cells; assay: Hoechst 33258-propidium iodide fluorescent double staining; type: cell-based, human; settings: 1.0, 2.5, 5.0 and 10 μM, 48 h
# Method: Fluorescence staining was conducted to observe the morphological changes induced by the apoptotic process in cells treated with the compound 4a. HeLa cell suspension was seeded into 6-well plates at a density of 150,000 cells per well and allowed to repose for 24 h before exposure to different concentrations of our test substance (1.0, 2.5, 5.0, and 10 μM) for 48 h. To distinguish apoptotic and necrotic cell populations, the cells were stained with lipophilic Hoechst 33258 (1 μg/mL, HO) and hydrophilic propidium iodide (3 μg/mL, PI) for 90 min at 37 °C in a CO2 incubator. Following the removal of the remaining dye-containing medium, a Nikon Eclipse TS100 fluorescence microscope (Nikon Instruments Europe, Amstelveen, The Netherlands) was used to capture at least 4 images per condition. The microscope was equipped with suitable optical blocks for Hoechst 33258 (excitation: 360/40 nm bandpass filter, emission: 460/50 nm bandpass filter, and 400 nm dichromatic mirror) and propidium iodide (excitation: 500/20 nm bandpass filter, emission: 520 nm long pass filter, and 515 nm dichromatic mirror). This technique enables differentiation between early apoptosis and secondary necrosis by examining the nuclear morphology and membrane integrity of cells. The HO dye solution readily permeates into the nuclei of all cells, resulting in a uniform blue staining in the nuclei of the viable cells. […]
# [11] = system: HeLa cells; set-up: method as in PMID 35091086; settings: HeLa cell line; cited from earlier work
# [12] = system: NIH/3T3 cells; set-up: method as in PMID 35091086; settings: read-out: IC50 on non-cancerous mouse fibroblast (NIH/3T3) cells; cited from earlier work
Compound,EC50 [1],selectivity index (SI) [2],IC50 [3],IC50 [4],reduction in the migratory capacity of HeLa cells relative to the control ([5]; 24 h of treatment),reduction in the migratory capacity of HeLa cells relative to the control ([5]; 48 h of treatment),decrease in number of invading cells (anti-invasive activity) vs control [6],concentration of maximum tubulin polymerisation effect ([7]; absence of glycerol),"effect on tubulin polymerisation relative to the control ([7]; all tested concentrations (50, 150, 300, 600 µM), presence or absence of glycerol)",effect on G2/M phase population [8],effect on hypodiploid sub-G1 population [8],cell viability change after 24 h incubation [9],"nuclei emitting intense blue fluorescence (DNA condensation, early apoptosis) [10]",IC50 [11],IC50 [12]
"COc1cc2c(cc1O)CC[C@@H]1[C@@H]2CC[C@]2(C)[C@@H](O)CC[C@@H]12 [Compound 2ME, 2-methoxyestradiol]",0.0111 µM,–,–,–,–,–,–,–,–,–,–,–,–,–,–
"CN(C)Cc1cc2c(cc1O)CC[C@@H]1[C@@H]2CC[C@]2(C)[C@@H](O)CC[C@@H]12 [Compound 4a, 2-[(dimethylamino)methyl]-oestradiol]",0.653 µM,15.6,16.9 µM,19.2 µM,53.9%,39.6%,more than 95%,approximately 300 µM,significant increase in tubulin polymerisation,significant cell arrest at the G2/M phase,significant rise in the hypodiploid sub-G1 population,no significant alteration in cell viability,concentration-dependent escalation,4.53 µM,70.4 µM
